# Experimental data from publication PMC8362126, “Proteolysis Targeting Chimera (PROTAC) for Macrophage Migration Inhibitory Factor (MIF) Has Anti‐Proliferative Activity in Lung Cancer Cells” (Angewandte Chemie (International Ed. in English), 2021).
# “And” between values parts separate entries of the source, which are not always exact repeats. Identical values can stand only once. “Also recorded” adds a separate entry of the source.
# Legend:
# [1] = target: T1, MIF (Homo sapiens, UniProt P14174); test: MIF degradation in A549 cells, western-blot; type: cell-based; set-up: endogenous in cells; host or cells: A549 (ATCC CCL-185); conditions: A549 cells; for rescue of MD9 mediated MIF degradation: 2 hours pretreatment (1 100 µM, 3 50 µM, 4 50 µM, Bortezomib), then 10 µM MD9 12 h; for rescue of MD13 mediated MIF degradation: co-treatment (Bortezomib) or 1 hour pretreatment (3, 4) with MD13
# T1 sequence (P14174 2-115 limits assumed): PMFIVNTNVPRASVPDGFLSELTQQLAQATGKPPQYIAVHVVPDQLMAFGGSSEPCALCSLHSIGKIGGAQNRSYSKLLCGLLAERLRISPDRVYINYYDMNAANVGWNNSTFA
# Procedure: The concentration dependence of PROTAC MD13‐mediated induction of MIF degradation in A549 cells was investigated using western‐blot. […] The MIF levels were normalized to the vehicle treated control and plotted to the respective MD13 concentrations. This provided a DC50 of around 100 nM and a maximal degradation of around 90–95 % at concentrations higher than 1 μM (Figure 3 B). The DC50 of MD13 measured by ELISA assay was about 200 nM (Figure 3 C), which is in line with the result from western‐blot. […]
# Cell lysates were prepared using the protocol described above. About 10−40 μg of total protein was mixed with the 4× Laemmli Loading Dye (250 mM Tris, pH 6.8, 40% glycerol, 5% SDS, 0.005% bromophenol blue, 4% β-mercaptoethanol) and heated at 95−100 °C for 5 min and loaded onto a 12% Bis-Tris gel (Bio-Rad Laboratories, #4561084) and proteins were separated at 120V. Afterwards, proteins were transferred to polyvinylidene fluoride (PVDF) membranes, subsequently non-specific antibody binding was blocked with 5% nonfat dry milk (BIO-RAD, #1706404) in TBST buffer and incubated overnight at 4 °C with one of the following primary antibodies: anti-MIF (1:1000, ThermoFisher, #PA5-27343 ) or anti-β-actin (1:10000 Cell Signalling, #8457). The membranes were further incubated with a goat anti-rabbit HRP-conjugated secondary antibody (1:2000, DAKO, p0448) for 2 h at room temperature. Proteins were visualized with an ECLTM Prime Western Blotting System (GE Healthcare #RPN2232). The immunoblot was generated by ChemiDoc MP Imaging Systems (Bio-Rad) and analyzed by the ImageJ software. […]
# As a control, the same experiment was repeated and analyzed by a western-blot assay (Figure 3B). The potency estimated from the Western blot assay was 1 µM (Figure 3C), which is consistent with the result from the ELISA assay. The “Hook effect” […]
# [2] = target: T1, MIF; test: MIF degradation in A549 cells, cell lysate-based ELISA; set-up: endogenous in cells; host or cells: A549 (ATCC CCL-185); conditions: for Dmax at 20 µM / degradation [%] 2 μM / degradation (%) 20 µM: vs DMSO, mean±SD n=3
# Procedure: In addition, A549 cells have been successfully used for assessing activity of cereblon ligand‐based PROTACs previously.[42] Therefore, A549 is a suitable cell line for evaluating the effect of our putative MIF‐directed PROTACs MD1 to MD12 on MIF protein levels. The reduction in MIF levels were monitored in A549 cells that were treated with two different PROTAC concentrations (20 and 2 μM) for 12 h in order to estimate the dose dependency, which is important for PROTACs because of the Hook effect.[35] The MIF levels in cell lysates were analyzed using an enzyme‐linked immunosorbent assay (ELISA).
# S3. ELISA screening of MIF protein level on MIF-directed PROTACs
# Cell culture. Human A549 lung cancer cells (ATCCCCL-185) or HEK293 kidney […]
# containing 10% (v/v) fetal bovine serum (FBS), 100 U/mL penicillin/streptomycin […]
# ELISA. 7×10^5 A549 cells per well were plated in 6-well plates. The next day, cells were treated with a solution of compounds or the vehicle for 12 h. Subsequently, the culture medium was removed and cells were washed twice with cold PBS and collected after trypsin (0.5 mL) degestion. Cells were then lyzed in lysis buffer (150 mM NaCl, 50 mM Hepes pH 7.5, 5 mM EDTA, 0.1% (w/v) NP40) containing protease inhibitor cocktail (Roche, #11836153001) and resuspended vigourously. The supernatant was collected after spinning down at 16 000g at 4 °C for 30 min. The total protein concentration was determined with PierceTM BCA protein assay kit ( ThermoFisher , #23225). The protein concentration was normalized between samples. The relative MIF levels from 1µg total protein were determined by ELISA with the human MIF DuoSet ELISA kit according to the instructions of the manufacturer (R&D systems, #DY289).
# Figure S1. Screening of compounds for MIF degradation activity by cell lysate -based ELISA.
# A549 cells were treated with compounds at (A) 20 or (B) 2 µM for 12 h. Data was normalized […]
# (1 picture or pasted object on this page, not shown here)
# [3] = target: T1, MIF; test: MIF catalyzed 4-HPP tautomerization assay; type: biochemical; conditions: for IC50: 4-HPP conversion assay; for Ki: MIF catalyzed 4-HPP tautomerization, n=3
# Procedure: S2. MIF Tautomerase activity IC50 study
# The protocol for measuring inhibition of MIF tautomerase enzyme activity and enzyme kinetics was described previously.[8] Briefly, 180 µL of a 500 nM MIF solution in boric acid buffer (435 mM, pH 6.2) was mixed with 10 µL of a 20 mM EDTA solution in demiwater and 10 µL of a solution of the desired compound dissolved in DMSO or blanc DMSO. This mixture was pre-incubated at room temperature for 10 min. Next, 50 µL of this mixture was mixed with 50 µL of a 1 mM 4-HPP solution in ammonium acetate buffer (50 mM, pH 6.0). Subsequently, MIF tautomerase activity was monitored by measuring the increase of UV absorbance at 306 nm over time. MIF tautomerase activity in the presence a blank DMSO dilution was set to 100% enzyme activity. Non-catalyzed conversion of the substrate in absence of MIF was set to 0%.
# Data from the first three minutes were used to calculate the initial velocities. All experiments were repeated three times and calculations were performed with the program GraphPad Prism.
# Table S1. 4-HPP conversion assay results of MIF PROTACs
# (also on this page, place not known: p rotocol previously. subs trate log [MD-1] (10^-6 M) Activity of MIF tautomerase(%) -2 -1 0 1 2 0 50 100 log [MD-2] (10^-6 M) Activity of MIF tautomerase(%) -2 -1 0 1 2 0 50 100)
# [4] = target: T1, MIF; test: MIF degradation in A549 cells, cell lysate-based ELISA; set-up: endogenous in cells; host or cells: A549 (ATCC CCL-185); conditions: 12 h, vs DMSO, mean±SD n=3
SMILES,"Dmax at 20 µM ([2]; A549, 12 h, A549 cells, 12 h)","degradation [%] 2 μM ([2]; A549 cells, 12 h)",IC50 [3],Ki [3],further results
CC(C)C[C@H](NC(=O)[C@H](Cc1ccccc1)NC(=O)c1cnccn1)B(O)O [Bortezomib],,,,,rescue of MD9 mediated MIF degradation [1]: considerably decreased; also recorded: rescued; rescue of MD13 mediated MIF degradation [1]: inhibited the degradation of MIF; rescue of MD13 mediated MIF degradation ([1]; listed as bortezomib): able to abolish the MD13 triggered degradation
O=C1CCC(N2C(=O)c3cccc(NCc4cn(CC(=O)Nc5ccc(-c6cc7ccc(O)cc7oc6=O)cc5)nn4)c3C2=O)C(=O)N1 (centres unmarked) [MD1],16 ± 7%,n.s.,0.262 ± 0.035 µM,0.175 ± 0.023 µM,
O=C1CCC(N2C(=O)c3cccc(NC(=O)CCc4cn(CC(=O)Nc5ccc(-c6cc7ccc(O)cc7oc6=O)cc5)nn4)c3C2=O)C(=O)N1 (centres unmarked) [MD2],31 ± 3%,n.s.,0.288 ± 0.025 µM,0.192 ± 0.017 µM,
O=C1CCC(N2C(=O)c3cccc(NC(=O)CCCc4cn(CC(=O)Nc5ccc(-c6cc7ccc(O)cc7oc6=O)cc5)nn4)c3C2=O)C(=O)N1 (centres unmarked) [MD3],22 ± 9%,n.s.,0.182 ± 0.016 µM,0.121 ± 0.011 µM,
O=C1CCC(N2C(=O)c3cccc(NC(=O)CCCCc4cn(CC(=O)Nc5ccc(-c6cc7ccc(O)cc7oc6=O)cc5)nn4)c3C2=O)C(=O)N1 (centres unmarked) [MD4],50 ± 3%,n.s.,0.233 ± 0.026 µM,0.155 ± 0.017 µM,
O=C1CCC(N2C(=O)c3cccc(NC(=O)CCCCc4cn(CCC(=O)Nc5ccc(-c6cc7ccc(O)cc7oc6=O)cc5)nn4)c3C2=O)C(=O)N1 (centres unmarked) [MD5],58 ± 8%,n.s.,0.895 ± 0.082 µM,0.597 ± 0.055 µM,
O=C1CCC(N2C(=O)c3cccc(NC(=O)Cc4ccc(-n5cc(CCCC(=O)Nc6ccc(-c7cc8ccc(O)cc8oc7=O)cc6)nn5)cc4)c3C2=O)C(=O)N1 (centres unmarked) [MD6],,n.s.,1.5 ± 0.13 µM,0.999 ± 0.087 µM,"degradation (%) 20 µM ([2]; A549 cells, 12 h): n.s. and did not trigger MIF reduction"
O=C1CCC(N2C(=O)c3cccc(NCCCCC(=O)Nc4ccc(N5Cc6ccc(O)cc6OC5=O)cc4)c3C2=O)C(=O)N1 (centres unmarked) [MD7],,n.s.,0.082 ± 0.004 µM,0.055 ± 0.003 µM,"Dmax at 20 µM ([2]; A549 cells, 12 h): 61 ± 7%"
O=C(CCCCNc1cccc2c1C(=O)N(C1CCC(=O)NC1=O)C2=O)NCc1ccc(N2Cc3ccc(O)cc3OC2=O)cc1 (centres unmarked) [MD8],,21±7%,0.129 ± 0.008 µM,0.086 ± 0.005 µM,"Dmax at 20 µM ([2]; A549 cells, 12 h): 51 ± 4%"
O=C1CCC(N2C(=O)c3cccc(NCCCCCCC(=O)Nc4ccc(N5Cc6ccc(O)cc6OC5=O)cc4)c3C2=O)C(=O)N1 (centres unmarked) [MD9],92 ± 10%,55±4%,0.076 ± 0.004 µM,0.051 ± 0.003 µM,"Dmax ([2]; A549, A549 cells, 12 h, ELISA, read-out: maximal degradation): > 90%; DC50 ([2]; A549 cells, 12 h, ELISA, read-out: half-maximal degradation concentration (DC50)): 1.5 µM and ~1.5 µM; Hook effect ([2]; A549 cells, at 20 μM, ELISA and western-blot): Hook effect; degradation [%] 0.2 μM [4]: 24±4%; DC50 ([1]; 12 h, western-blot, read-out: DC50 (potency estimated from western blot)): 1 µM and ~1.5 µM; time of treatment after which MIF degradation becomes visible ([1]; MD9 at 10 μM): 3 h"
O=C1CCC(N2C(=O)c3cccc(NCc4cn(CCC(=O)Nc5ccc(N6Cc7ccc(O)cc7OC6=O)cc5)nn4)c3C2=O)C(=O)N1 (centres unmarked) [MD10],,55±9%,0.147 ± 0.013 µM,0.098 ± 0.009 µM,
O=C1CCC(N2C(=O)c3cccc(NC(=O)CCCc4cn(CCC(=O)Nc5ccc(N6Cc7ccc(O)cc7OC6=O)cc5)nn4)c3C2=O)C(=O)N1 (centres unmarked) [MD11],,n.s.,0.143 ± 0.011 µM,0.095 ± 0.007 µM,"degradation (%) 20 µM ([2]; A549 cells, 12 h): 40±8%"
O=C(Cc1ccc(N2Cc3ccc(O)cc3OC2=O)cc1)NCc1cn(-c2ccc(CC(=O)Nc3cccc4c3C(=O)N(C3CCC(=O)NC3=O)C4=O)cc2)nn1 (centres unmarked) [MD12],38 ± 6%,n.s.,0.138 ± 0.006 µM,0.092 ± 0.004 µM,
O=C1CCC(N2C(=O)c3cccc(NCCCCCCCCCC(=O)Nc4ccc(N5Cc6ccc(O)cc6OC5=O)cc4)c3C2=O)C(=O)N1 (centres unmarked) [MD14],,64±2%,0.097 ± 0.006 µM,0.065 ± 0.004 µM,degradation [%] 0.2 μM [4]: 51±2%
"COC(=O)CC1CC(c2ccc(O)cc2)=NO1 (centres unmarked) [compound 1, ISO 1]",,,,,rescue of MD9 mediated MIF degradation [1]: partial to complete rescue; also recorded: rescued
"COc1ccc(-c2cc3ccc(O)cc3oc2=O)cc1 [compound 2, reference compound]",,,,0.37 ± 0.03 µM,
